Data as given in PMC8155022 (Scientific Reports, 2021).
Where “and” joins values, the source holds several entries; their conditions need not be identical. Equal entries are not always repeated. Entries after “also recorded” stand apart in the source; their conditions may differ. Where two headings read alike, the source gives them in different places.

Assays:
NT1 (h) (NTS1) = biological target: T1, NT1 (h) (NTS1) (Homo sapiens, UniProt P30989); assay: Cerep panel; format: binding
T1 construct: purchased Cerep (receptors, ion channels, transporters); Eurofins Panlabs (kinases)
Protocol: (§1) A panel of 52 different receptors, ion channels and transporters was tested by Cerep, Inc. (Redmond, WA).

IGF-1R(h) = biological target: T2, IGF-1R(h) (Homo sapiens, UniProt P08069); assay: Kinase panel; format: biochemical
T2 construct: purchased Cerep (receptors, ion channels, transporters); Eurofins Panlabs (kinases)
Protocol: (§2) Kinase selectivity was conducted by Eurofins Panlabs Inc (St Charles, MO).

Plk3(h) = biological target: T3, Plk3(h) (Homo sapiens, UniProt Q9H4B4); assay: Kinase panel; format: biochemical
T3 construct: purchased Cerep (receptors, ion channels, transporters); Eurofins Panlabs (kinases)
Protocol: as §2

ADRA2A = ADRA2A (Homo sapiens, UniProt P08913); assay: GPCR panel, cAMP or calcium FLIPR assays; format: cell-based
Protocol: (§3) 28 GPCRs were evaluated through cAMP or calcium FLIPR assays[67].

NK2 = NK2 (Homo sapiens, UniProt P21452); assay: follow-up functional study; format: cell-based
Sequence of NK2 (P21452 whole entry): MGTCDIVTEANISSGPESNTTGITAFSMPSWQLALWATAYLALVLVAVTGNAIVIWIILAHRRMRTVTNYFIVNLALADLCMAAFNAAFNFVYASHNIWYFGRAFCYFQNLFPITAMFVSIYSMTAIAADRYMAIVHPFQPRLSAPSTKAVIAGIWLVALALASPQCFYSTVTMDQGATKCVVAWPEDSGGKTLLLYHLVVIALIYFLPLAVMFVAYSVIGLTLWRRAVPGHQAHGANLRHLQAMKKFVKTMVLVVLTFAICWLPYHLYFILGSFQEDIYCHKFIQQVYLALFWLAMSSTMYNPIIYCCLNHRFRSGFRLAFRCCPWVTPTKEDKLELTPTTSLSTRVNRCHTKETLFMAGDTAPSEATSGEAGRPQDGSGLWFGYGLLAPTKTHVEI

Flt3(h) = biological target: T4, Flt3(h) (Homo sapiens, UniProt P36888); assay: Kinase panel; format: biochemical
T4 construct: purchased Cerep (receptors, ion channels, transporters); Eurofins Panlabs (kinases)
T4 sequence (P36888 27-993): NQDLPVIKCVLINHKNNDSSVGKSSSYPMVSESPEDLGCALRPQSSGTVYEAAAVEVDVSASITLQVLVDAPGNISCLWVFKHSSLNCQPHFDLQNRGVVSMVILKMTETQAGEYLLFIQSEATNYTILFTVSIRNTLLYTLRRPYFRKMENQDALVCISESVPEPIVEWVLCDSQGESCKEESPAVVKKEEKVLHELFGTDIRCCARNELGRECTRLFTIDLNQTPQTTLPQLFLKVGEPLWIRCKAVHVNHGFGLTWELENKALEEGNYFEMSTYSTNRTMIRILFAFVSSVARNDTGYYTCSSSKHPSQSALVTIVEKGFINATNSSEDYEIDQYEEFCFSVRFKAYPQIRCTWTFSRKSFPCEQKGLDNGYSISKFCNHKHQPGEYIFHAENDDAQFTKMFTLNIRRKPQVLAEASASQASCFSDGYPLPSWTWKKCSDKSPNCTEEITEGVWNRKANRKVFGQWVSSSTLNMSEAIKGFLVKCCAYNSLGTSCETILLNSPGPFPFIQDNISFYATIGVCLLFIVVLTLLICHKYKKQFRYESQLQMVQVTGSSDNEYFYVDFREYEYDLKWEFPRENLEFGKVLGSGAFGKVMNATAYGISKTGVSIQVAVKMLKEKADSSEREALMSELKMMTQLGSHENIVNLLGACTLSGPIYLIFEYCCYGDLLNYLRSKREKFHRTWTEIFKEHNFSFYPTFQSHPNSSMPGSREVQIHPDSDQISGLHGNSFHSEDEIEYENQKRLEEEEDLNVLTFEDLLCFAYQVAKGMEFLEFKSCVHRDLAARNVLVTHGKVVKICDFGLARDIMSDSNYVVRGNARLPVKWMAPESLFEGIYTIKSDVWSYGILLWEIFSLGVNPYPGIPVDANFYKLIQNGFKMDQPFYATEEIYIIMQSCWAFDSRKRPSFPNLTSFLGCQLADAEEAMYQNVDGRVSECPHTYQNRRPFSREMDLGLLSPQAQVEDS
Protocol: as §2

EphA2(h) = biological target: T5, EphA2(h) (Homo sapiens, UniProt P29317); assay: Kinase panel; format: biochemical
T5 construct: purchased Cerep (receptors, ion channels, transporters); Eurofins Panlabs (kinases)
T5 sequence (P29317 24-976): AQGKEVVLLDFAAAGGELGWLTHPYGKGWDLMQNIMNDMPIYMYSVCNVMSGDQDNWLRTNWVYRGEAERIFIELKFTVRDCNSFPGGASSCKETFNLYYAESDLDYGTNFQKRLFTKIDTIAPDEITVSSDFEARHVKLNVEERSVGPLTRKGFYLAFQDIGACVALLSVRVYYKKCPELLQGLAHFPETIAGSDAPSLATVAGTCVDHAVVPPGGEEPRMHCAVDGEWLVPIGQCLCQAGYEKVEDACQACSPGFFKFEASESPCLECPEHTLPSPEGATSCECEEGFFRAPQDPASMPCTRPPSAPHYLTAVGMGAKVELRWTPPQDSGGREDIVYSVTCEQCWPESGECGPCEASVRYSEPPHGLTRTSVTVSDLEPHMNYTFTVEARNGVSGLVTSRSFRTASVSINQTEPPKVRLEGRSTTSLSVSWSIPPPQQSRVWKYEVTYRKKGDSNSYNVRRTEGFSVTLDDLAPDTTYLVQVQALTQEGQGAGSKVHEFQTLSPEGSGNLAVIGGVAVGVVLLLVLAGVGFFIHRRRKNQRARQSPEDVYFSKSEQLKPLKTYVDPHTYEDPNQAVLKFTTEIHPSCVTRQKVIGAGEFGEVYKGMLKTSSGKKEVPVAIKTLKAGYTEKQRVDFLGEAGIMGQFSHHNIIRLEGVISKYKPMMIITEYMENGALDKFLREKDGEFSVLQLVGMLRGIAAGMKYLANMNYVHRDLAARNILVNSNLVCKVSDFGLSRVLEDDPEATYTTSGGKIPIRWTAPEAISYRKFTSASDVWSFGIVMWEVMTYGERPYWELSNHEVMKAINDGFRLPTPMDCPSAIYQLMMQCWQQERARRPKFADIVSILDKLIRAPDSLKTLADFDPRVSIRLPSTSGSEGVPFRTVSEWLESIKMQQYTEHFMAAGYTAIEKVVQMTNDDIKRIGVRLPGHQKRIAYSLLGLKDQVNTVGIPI
Protocol: as §2

CK2(h) = biological target: T6, CK2(h) (Homo sapiens, UniProt P68400); assay: Kinase panel; format: biochemical
T6 construct: purchased Cerep (receptors, ion channels, transporters); Eurofins Panlabs (kinases)
Protocol: as §2

Ret(h) = biological target: T7, Ret(h) (Homo sapiens, UniProt P07949); assay: Kinase panel; format: biochemical
T7 construct: purchased Cerep (receptors, ion channels, transporters); Eurofins Panlabs (kinases)
Protocol: as §2

5HT2B = 5HT2B (Homo sapiens, UniProt P41595); assay: Cerep panel; format: binding; design: purchased Cerep (receptors, ion channels, transporters); Eurofins Panlabs (kinases)
Sequence of 5HT2B (P41595 whole entry): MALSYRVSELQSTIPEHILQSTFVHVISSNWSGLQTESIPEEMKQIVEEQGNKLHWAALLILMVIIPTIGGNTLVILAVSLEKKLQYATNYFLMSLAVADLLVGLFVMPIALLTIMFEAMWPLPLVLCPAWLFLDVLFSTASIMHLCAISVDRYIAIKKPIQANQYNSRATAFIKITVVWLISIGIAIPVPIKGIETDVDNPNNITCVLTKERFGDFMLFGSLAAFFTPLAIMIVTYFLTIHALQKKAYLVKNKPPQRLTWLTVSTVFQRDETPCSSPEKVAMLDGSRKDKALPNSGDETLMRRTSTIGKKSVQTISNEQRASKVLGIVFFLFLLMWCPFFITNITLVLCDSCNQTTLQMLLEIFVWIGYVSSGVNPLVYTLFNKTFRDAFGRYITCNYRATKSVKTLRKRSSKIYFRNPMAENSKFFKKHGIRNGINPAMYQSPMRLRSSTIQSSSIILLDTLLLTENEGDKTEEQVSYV
Protocol: as §1

D2L = D2L (Homo sapiens, UniProt P14416); assay: GPCR panel, cAMP or calcium FLIPR assays; format: cell-based
Protocol: as §3

D1 (h) = biological target: T8, D1 (h) (Homo sapiens, UniProt P21728); assay: Cerep panel; format: binding
T8 construct: purchased Cerep (receptors, ion channels, transporters); Eurofins Panlabs (kinases)
Protocol: as §1

GSK3β(h) = biological target: T9, GSK3β(h) (Homo sapiens, UniProt P49841); assay: Kinase panel; format: biochemical
T9 construct: purchased Cerep (receptors, ion channels, transporters); Eurofins Panlabs (kinases)
Protocol: as §2

GR = biological target: T10, GR (Homo sapiens, UniProt P04150); assay: nuclear receptor cellular GAL4 reporter assay; format: cell-based; conditions: agonist and antagonist mode; read-out: potency in agonist and antagonist mode
T10 construct: expressed in transfected cells

JAK2(h) = biological target: T11, JAK2(h) (Homo sapiens, UniProt O60674); assay: Kinase panel; format: biochemical
T11 construct: purchased Cerep (receptors, ion channels, transporters); Eurofins Panlabs (kinases)
T11 sequence (O60674 whole entry): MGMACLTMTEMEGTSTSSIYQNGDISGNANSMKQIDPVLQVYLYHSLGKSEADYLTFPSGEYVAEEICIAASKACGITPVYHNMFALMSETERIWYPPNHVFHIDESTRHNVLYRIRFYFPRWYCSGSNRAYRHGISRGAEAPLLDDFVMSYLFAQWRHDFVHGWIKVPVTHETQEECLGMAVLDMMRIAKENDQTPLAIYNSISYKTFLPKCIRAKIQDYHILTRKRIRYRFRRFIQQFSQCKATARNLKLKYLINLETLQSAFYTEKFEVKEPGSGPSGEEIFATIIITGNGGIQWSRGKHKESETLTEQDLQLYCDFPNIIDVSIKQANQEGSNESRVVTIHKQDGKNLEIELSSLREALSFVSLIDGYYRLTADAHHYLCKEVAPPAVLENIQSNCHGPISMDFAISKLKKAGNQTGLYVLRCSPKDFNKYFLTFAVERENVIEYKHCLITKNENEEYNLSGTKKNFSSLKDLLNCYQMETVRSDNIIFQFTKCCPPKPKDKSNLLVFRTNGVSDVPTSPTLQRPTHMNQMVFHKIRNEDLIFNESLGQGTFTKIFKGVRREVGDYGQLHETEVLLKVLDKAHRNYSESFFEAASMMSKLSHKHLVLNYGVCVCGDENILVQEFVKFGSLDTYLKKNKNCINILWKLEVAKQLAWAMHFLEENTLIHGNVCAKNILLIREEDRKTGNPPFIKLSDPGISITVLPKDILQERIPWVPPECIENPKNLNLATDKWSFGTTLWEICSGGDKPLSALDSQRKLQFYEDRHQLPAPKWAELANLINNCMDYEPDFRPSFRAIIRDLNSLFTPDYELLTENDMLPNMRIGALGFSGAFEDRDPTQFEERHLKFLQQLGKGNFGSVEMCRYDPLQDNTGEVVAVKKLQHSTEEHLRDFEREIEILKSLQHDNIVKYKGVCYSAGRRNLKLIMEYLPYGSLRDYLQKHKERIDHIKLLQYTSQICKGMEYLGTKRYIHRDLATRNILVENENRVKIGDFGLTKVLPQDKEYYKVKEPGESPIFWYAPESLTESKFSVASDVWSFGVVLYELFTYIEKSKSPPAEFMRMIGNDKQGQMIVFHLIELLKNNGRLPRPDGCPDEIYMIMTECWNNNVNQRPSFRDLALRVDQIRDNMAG
Protocol: as §2

Y1 (h) = biological target: T12, Y1 (h) (Homo sapiens, UniProt P25929); assay: Cerep panel; format: binding
T12 construct: purchased Cerep (receptors, ion channels, transporters); Eurofins Panlabs (kinases)
Protocol: as §1

A2A (h) = biological target: T13, A2A (h) (Homo sapiens, UniProt P29274); assay: Cerep panel; format: binding
T13 construct: purchased Cerep (receptors, ion channels, transporters); Eurofins Panlabs (kinases)
T13 sequence (P29274 whole entry): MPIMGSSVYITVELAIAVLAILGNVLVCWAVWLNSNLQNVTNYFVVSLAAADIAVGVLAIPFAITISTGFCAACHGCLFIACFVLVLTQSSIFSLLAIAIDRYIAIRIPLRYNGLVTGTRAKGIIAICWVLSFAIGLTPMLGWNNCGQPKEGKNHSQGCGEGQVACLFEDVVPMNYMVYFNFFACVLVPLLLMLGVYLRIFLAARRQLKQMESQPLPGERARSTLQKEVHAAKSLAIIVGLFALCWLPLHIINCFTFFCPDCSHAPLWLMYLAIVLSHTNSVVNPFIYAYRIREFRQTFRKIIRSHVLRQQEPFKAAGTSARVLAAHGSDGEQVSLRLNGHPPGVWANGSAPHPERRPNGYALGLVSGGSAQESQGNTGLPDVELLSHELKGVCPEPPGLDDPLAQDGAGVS
Protocol: as §1

H2 (h) = biological target: T14, H2 (h) (Homo sapiens, UniProt P25021); assay: Cerep panel; format: binding
T14 construct: purchased Cerep (receptors, ion channels, transporters); Eurofins Panlabs (kinases)
Protocol: as §1

delta 2 (h) (DOP) = biological target: T15, delta 2 (h) (DOP) (Homo sapiens, UniProt P41143); assay: Cerep panel; format: binding
T15 construct: purchased Cerep (receptors, ion channels, transporters); Eurofins Panlabs (kinases)
Protocol: as §1

M3 = M3 (Homo sapiens, UniProt P20309); assay: GPCR panel, cAMP or calcium FLIPR assays; format: cell-based
Protocol: as §3

PR = biological target: T16, PR (Homo sapiens, UniProt P06401); assay: nuclear receptor cellular GAL4 reporter assay; format: cell-based; conditions: agonist and antagonist mode; read-out: potency in agonist and antagonist mode
T16 construct: expressed in transfected cells

Pim-2(h) = biological target: T17, Pim-2(h) (Homo sapiens, UniProt Q9P1W9); assay: Kinase panel; format: biochemical
T17 construct: purchased Cerep (receptors, ion channels, transporters); Eurofins Panlabs (kinases)
Protocol: as §2

5HT1A = 5HT1A (Homo sapiens, UniProt P08908); assay: GPCR panel, cAMP or calcium FLIPR assays; format: cell-based
Sequence of 5HT1A (P08908 whole entry, species assumed): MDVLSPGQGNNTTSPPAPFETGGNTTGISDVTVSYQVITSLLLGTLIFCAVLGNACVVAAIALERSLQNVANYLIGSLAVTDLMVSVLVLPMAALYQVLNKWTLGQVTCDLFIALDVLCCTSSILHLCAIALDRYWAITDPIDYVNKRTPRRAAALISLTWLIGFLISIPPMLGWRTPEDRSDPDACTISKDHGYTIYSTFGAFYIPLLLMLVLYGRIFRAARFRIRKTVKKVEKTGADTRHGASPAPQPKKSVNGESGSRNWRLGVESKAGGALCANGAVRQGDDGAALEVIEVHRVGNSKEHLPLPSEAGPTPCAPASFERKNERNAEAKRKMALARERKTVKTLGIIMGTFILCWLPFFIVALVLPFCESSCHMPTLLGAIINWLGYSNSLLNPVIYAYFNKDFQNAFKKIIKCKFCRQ
Protocol: 28 GPCRs were evaluated through cAMP or calcium FLIPR assays[67]. A panel of 52 different receptors, ion channels and transporters was tested by Cerep, Inc. (Redmond, WA).

5HT7 = 5HT7 (Homo sapiens, UniProt P34969); assay: GPCR panel, cAMP or calcium FLIPR assays; format: cell-based
Protocol: as §3

AT1 (h) = biological target: T18, AT1 (h) (Homo sapiens, UniProt P30556); assay: Cerep panel; format: binding
T18 construct: purchased Cerep (receptors, ion channels, transporters); Eurofins Panlabs (kinases)
Protocol: as §1

CaMKIIβ(h) = biological target: T19, CaMKIIβ(h) (Homo sapiens, UniProt Q13554); assay: Kinase panel; format: biochemical
T19 construct: purchased Cerep (receptors, ion channels, transporters); Eurofins Panlabs (kinases)
Protocol: as §2

CaMKIδ(h) = biological target: T20, CaMKIδ(h) (Homo sapiens, UniProt Q8IU85); assay: Kinase panel; format: biochemical
T20 construct: purchased Cerep (receptors, ion channels, transporters); Eurofins Panlabs (kinases)
Protocol: as §2

VIP1 (h) (VPAC1) = biological target: T21, VIP1 (h) (VPAC1) (Homo sapiens, UniProt P32241); assay: Cerep panel; format: binding
T21 construct: purchased Cerep (receptors, ion channels, transporters); Eurofins Panlabs (kinases)
Protocol: as §1

M2 = M2 (Homo sapiens, UniProt P08172); assay: GPCR panel, cAMP or calcium FLIPR assays; format: cell-based
Protocol: as §3

[1] = tested on: human CD4+ T cells under Th1 conditions; assay: in vitro human Th1 differentiation, IFNγ production
Protocol: On day 4, supernatants were analyzed for IL-17A, IL-17F, IL-22 and IFNγ production.
Total CD4^+ T cells were isolated from peripheral blood mononuclear cells (PBMCs) of healthy donors using a CD4^+ T cell Isolation Kit II (Miltenyl Biotec, Auburn, CA), following the manufacturer’s instructions.
In vitro human Th17 and Th1 differentiation
Total CD4+ T cells were isolated from the peripheral blood mononuclear cells (PBMCs) of healthy donors
using a CD4+ T cell Isolation Kit II (Miltenyl Biotec, Auburn, CA), following the manufacturer’s
instructions. Isolated T cells were resuspended in culture medium and added to a 96-well plate at 1×105
beads (prepared using human T cell activation/expansion kit, Miltenyi Biotec) at final concentration of
3x10^6/mL, and cocktail for either Th17 differentiation (10 µg/mL anti-IL-4, 10 µg/mL anti-IFN, 10 ng/mL
IL-1β, 10 ng/mL IL-23, 50 ng/mL IL-6, 3 ng/mL TGFβ and 20 U/mL IL-2), or for Th1 differentiation (10
µg/mL anti-IL-4, 10 ng/mL IL-12, and 20 U/mL IL-2). Cells were cultured at 37°C and 5% CO2 for 3 days.
Supernatants were assayed for accumulated cytokines using MSD multi-spot assay (Meso Scale
Discovery, Rockville, MD) or R&D ELISA kit.

RXRα = biological target: T22, RXRα (Homo sapiens, UniProt P19793); assay: nuclear receptor cellular GAL4 reporter assay; format: cell-based; conditions: agonist and antagonist mode; read-out: potency in agonist and antagonist mode
T22 construct: expressed in transfected cells

[2] = mouse PK/PD model, plasma exposure; format: in vivo; conditions: female, C57B6, mouse, 100 mg/kg oral
Text: Compound concentrations are also listed as undiluted (measured) and diluted (extrapolated) in Supplementary Table S2.

[3] = plasma (5-fold diluted, extrapolated), calculated for 5-fold dilution, read-out: concentration in 5-fold diluted plasma
[4] = plasma, mean ± SD, n=10, read-out: concentration in undiluted plasma

CC1CCCN1C(=O)c1nc(C(=O)NCC(C)(C)O)sc1-c1ccc(C(O)(C(F)(F)F)C(F)(F)F)c(Cl)c1Cl (stereo not shown) [JNJ-61803534]
inhibition at 1 µM (NT1 (h) (NTS1)): < 10% | inhibition at 10 µM (NT1 (h) (NTS1)): < 10% | activity at 1 µM (IGF-1R(h)): 95% | activity at 10 µM (IGF-1R(h)): 106% | activity at 1 µM (Plk3(h)): 120% | activity at 10 µM (Plk3(h)): 114% | EC50 (ADRA2A; agonist): > 12.5 µM | IC50 (ADRA2A; antagonist): > 12.5 µM | IC50 (NK2; read-out: IC50 in follow up functional assays): > 30 µM | effect on NK2 in follow-up functional studies (NK2; up to 30 µM): no effect | activity at 1 µM (Flt3(h)): 84% | activity at 10 µM (Flt3(h)): 103% | activity at 1 µM (EphA2(h)): 99% | activity at 10 µM (EphA2(h)): 102% | activity at 1 µM (CK2(h)): 109% | activity at 10 µM (CK2(h)): 102% | activity at 1 µM (Ret(h)): 107% | activity at 10 µM (Ret(h)): 104% | inhibition at 1 µM (5HT2B): < 10% | inhibition at 10 µM (5HT2B): 36.8% | EC50 (D2L; agonist): > 12.5 µM | IC50 (D2L; antagonist): > 12.5 µM | inhibition at 1 µM (D1 (h)): < 10% | inhibition at 10 µM (D1 (h)): < 10% | activity at 1 µM (GSK3β(h)): 111% | activity at 10 µM (GSK3β(h)): 105% | IC50 (GR): > 1.5 µM | activity at 1 µM (JAK2(h)): 109% | activity at 10 µM (JAK2(h)): 105% | inhibition at 1 µM (Y1 (h)): < 10% | inhibition at 10 µM (Y1 (h)): < 10% | inhibition at 1 µM (A2A (h)): < 10% | inhibition at 10 µM (A2A (h)): < 10% | inhibition at 1 µM (H2 (h)): < 10% | inhibition at 10 µM (H2 (h)): 16.6% | inhibition at 1 µM (delta 2 (h) (DOP)): < 10% | inhibition at 10 µM (delta 2 (h) (DOP)): < 10% | EC50 (M3; agonist): > 10 µM | IC50 (M3; antagonist): > 10 µM | IC50 (PR): > 1.5 µM | activity at 1 µM (Pim-2(h)): 102% | activity at 10 µM (Pim-2(h)): 107% | EC50 (5HT1A; agonist): > 12.5 µM | IC50 (5HT1A; antagonist): > 12.5 µM | EC50 (5HT7; agonist): > 12.5 µM | IC50 (5HT7; antagonist): > 12.5 µM | inhibition at 1 µM (AT1 (h)): < 10% | inhibition at 10 µM (AT1 (h)): < 10% | activity at 1 µM (CaMKIIβ(h)): 89% | activity at 10 µM (CaMKIIβ(h)): 92% | activity at 1 µM (CaMKIδ(h)): 81% | activity at 10 µM (CaMKIδ(h)): 100% | inhibition at 1 µM (VIP1 (h) (VPAC1)): < 10% | inhibition at 10 µM (VIP1 (h) (VPAC1)): < 10% | EC50 (M2; agonist): > 12.5 µM | IC50 (M2; antagonist): > 12.5 µM | inhibition of IFNγ production [1]: no inhibition; also recorded: did not inhibit | IC50 (RXRα): > 1.5 µM | concentration at 1 h [2, 3]: 10 ± 2.8 µM | concentration at 2 h [2, 3]: 6.1 ± 3.1 µM | concentration at 4 h [2, 3]: 5 ± 1.7 µM | concentration at 7 h [2, 3]: 2.3 ± 0.5 µM | concentration at 12 h [2, 3]: 0.86 ± 0.4 µM | concentration at 18 h [2, 3]: 0.24 ± 0.1 µM | concentration at 1 h [2, 4]: 31000 ng/mL and 49.8 µM | concentration at 2 h [2, 4]: 18900 ng/mL and 30.4 µM | concentration at 4 h [2, 4]: 15500 ng/mL and 24.9 µM | concentration at 7 h [2, 4]: 11.7 µM and 7280 ng/mL | concentration at 12 h [2, 4]: 4.3 µM and 2670 ng/mL | concentration at 18 h [2, 4]: 1.2 µM and 759 ng/mL
